According to patent publication US20080242636A1, “MODIFIED CYCLODEXTRIN SULFATE-71 (TERIGYN) AS A MICROBICIDE AGENT” (priority 2007, published 2008):

Columns and labels:
[1] = test system: LAV-1, a laboratory strain of HIV-1; test: p24 antigen anti-HIV assay in pretreated PBMC and MT4 cells infected with LAV-1; assay type: cell-based
Description: (§1) Primary peripheral blood mononuclear cells and a MT4 cell line were pretreated with varying concentrations of terygyn before infection with LAV-1, a laboratory strain of HIV-1. As a control, a set of similar cells were not pretreated with the compound. Anti-HIV activity was measured using p24 antigen testing. Terygyn achieved total HIV inhibition (IC100) at 1 ug/ml. Cell toxicity was not observed till the concentration of terygyn was 10 ug/ml. […] Terygyn's ability to inhibit HIV at lower concentration makes it a more attractive compound for safe clinical use.

[2] = test system: Primary peripheral blood mononuclear cells and MT4 cell line; assay type: cell-based
Description: as §1

[3] = test system: HIV-1 R5 viruses; test: TZM-bL luciferase assay, R5 viruses; assay type: cell-based; details: TZM-bL cells, 48 hr at 37 C
Description: (§2) To further determine the inhibition of Terygyn of either CXCR4 or R5 viruses in cervical explants, various concentrations of Terygyn were cultured in TZM-bL cells with TCID50 HIV-1. TZM-bL are X4 positive HeLa cell clones that have been engineered to express CD4 and CCR5 and integrates a reporter gene for firefly luciferase and E coli b-galactosidase. Virus and drugs were left in culture for 48 hr at 37 C and luciferase assay determined thereafter.

[4] = test system: HIV-1 X4 viruses; test: TZM-bL luciferase assay, X4 viruses; assay type: cell-based; details: TZM-bL cells, 48 hr at 37 C
Description: as §2

[5] = test system: HIV; details: as described by Tanabe Seiyaku 1991; cited from earlier work
[6] = rats, safety trials; cited from earlier work
[7] = IC50 comparison with literature value
[8] = PBMC and MT4 pretreated, LAV-1, p24 antigen

O=S(=O)([O-])OC[C@@H]1O[C@@H]2O[C@H]3[C@H](OS(=O)(=O)[O-])[C@H](OCc4ccccc4)[C@@H](O[C@H]4[C@H](OS(=O)(=O)[O-])[C@H](OCc5ccccc5)[C@@H](O[C@H]5[C@H](OS(=O)(=O)[O-])[C@H](OCc6ccccc6)[C@@H](O[C@H]6[C@H](OS(=O)(=O)[O-])[C@H](OCc7ccccc7)[C@@H](O[C@H]7[C@H](OS(=O)(=O)[O-])[C@H](OCc8ccccc8)C(O[C@H]8[C@H](OS(=O)(=O)[O-])[C@H](OCc9ccccc9)C(O[C@H]1[C@H](OS(=O)(=O)[O-])[C@@H]2OCc1ccccc1)O[C@H]8COS(=O)(=O)[O-])O[C@H]7COS(=O)(=O)[O-])O[C@H]6COS(=O)(=O)[O-])O[C@H]5COS(=O)(=O)[O-])O[C@H]4COS(=O)(=O)[O-])O[C@H]3COS(=O)(=O)[O-].[Na+].[Na+].[Na+].[Na+].[Na+].[Na+].[Na+].[Na+].[Na+].[Na+].[Na+].[Na+].[Na+].[Na+] [Terygyn, Tetradecasodium heptakis (2-0 benzyl)β-cyclodextrin tetradecasulfate]
fold more potent than PRO 2000 [1, 7]: fifty-fold | fold more potent than Ushercell [1, 7]: 100 fold | in vitro antiviral activity IC50 [1, 8]: 0.5 µg/mL | total HIV inhibition (IC100) [1, 8]: 1 µg/mL | concentration until which cell toxicity was not observed [2]: 10000 ng/mL | IC50 R5 viruses [3]: 0.13 ± 0.05 µg/mL | IC50 X4 viruses [4]: 0.88 ± 1.2 µg/mL | anti-HIV activity in vitro [5]: 0.98 µg/mL | tolerability [6]: 125 mg/kg/day
